# Test results reported in patent publication US9238656B2, “Imidazo[4,5-b]pyridine derivatives as ALK and JAK modulators for the treatment of proliferative disorders” (priority 2012, dated 2016).
# How the values were obtained:
# [1] = 30 mg BID, kidney allograft recipients; cited from earlier work
# [2] = target: baculovirus-expressed ALK (Homo sapiens, UniProt Q9UM73); experiment: ALK kinase inhibition, TRF/ELISA; format: biochemical; conditions: read-out: ALK Potency
# Outline: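 Eu-PT66 anti-phosphotyrosine TRF read-out measured phosphorylation of plate-bound GST-PLC-γ (coated at 10 μg/mL). The phosphorylation was driven by 30 ng/mL ALK for 15 minutes at 37° C.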
# [3] = target: baculovirus-expressed JAK2 kinase (Homo sapiens, UniProt O60674); experiment: biochemical; conditions: 0.2 μM ATP; read-out: JAK2 Potency
# Outline: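 IC50 derived by variable-slope sigmoidal fit of percent inhibition against log compound concentration. Baculovirus-expressed JAK2 (15 ng/mL) phosphorylated a plate-bound biotinylated 15-mer peptide for 20 min at room temperature; detection by time-resolved fluorescence.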
# Chain of baculovirus-expressed JAK2 kinase (O60674 whole entry): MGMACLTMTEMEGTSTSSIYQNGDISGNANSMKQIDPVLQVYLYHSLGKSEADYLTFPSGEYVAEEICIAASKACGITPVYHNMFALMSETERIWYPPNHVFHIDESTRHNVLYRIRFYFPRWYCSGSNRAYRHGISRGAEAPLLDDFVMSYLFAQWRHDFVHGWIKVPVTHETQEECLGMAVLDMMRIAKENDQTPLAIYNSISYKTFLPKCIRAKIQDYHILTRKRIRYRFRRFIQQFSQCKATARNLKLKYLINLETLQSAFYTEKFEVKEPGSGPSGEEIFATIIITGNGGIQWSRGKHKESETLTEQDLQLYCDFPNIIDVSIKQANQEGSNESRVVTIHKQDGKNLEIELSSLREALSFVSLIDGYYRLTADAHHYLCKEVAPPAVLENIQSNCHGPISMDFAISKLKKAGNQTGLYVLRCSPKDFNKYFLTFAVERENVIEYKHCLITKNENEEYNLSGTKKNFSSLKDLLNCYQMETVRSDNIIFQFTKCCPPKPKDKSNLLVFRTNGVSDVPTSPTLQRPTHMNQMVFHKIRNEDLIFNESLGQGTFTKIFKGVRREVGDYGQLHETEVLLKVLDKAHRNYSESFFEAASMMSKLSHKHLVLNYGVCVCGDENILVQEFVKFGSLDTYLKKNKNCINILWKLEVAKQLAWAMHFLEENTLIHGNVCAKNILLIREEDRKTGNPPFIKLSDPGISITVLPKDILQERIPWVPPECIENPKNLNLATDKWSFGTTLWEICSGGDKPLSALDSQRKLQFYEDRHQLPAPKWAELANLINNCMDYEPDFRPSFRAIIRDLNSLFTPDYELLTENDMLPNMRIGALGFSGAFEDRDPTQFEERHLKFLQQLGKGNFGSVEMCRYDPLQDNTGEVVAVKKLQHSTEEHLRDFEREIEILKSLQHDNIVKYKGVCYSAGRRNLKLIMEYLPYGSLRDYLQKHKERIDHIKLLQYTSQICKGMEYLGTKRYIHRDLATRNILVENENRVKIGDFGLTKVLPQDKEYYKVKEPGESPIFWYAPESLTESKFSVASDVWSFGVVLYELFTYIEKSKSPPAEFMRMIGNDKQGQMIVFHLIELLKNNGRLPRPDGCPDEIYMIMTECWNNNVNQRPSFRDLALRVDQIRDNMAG
# Chain of baculovirus-expressed ALK (Q9UM73 19-1620): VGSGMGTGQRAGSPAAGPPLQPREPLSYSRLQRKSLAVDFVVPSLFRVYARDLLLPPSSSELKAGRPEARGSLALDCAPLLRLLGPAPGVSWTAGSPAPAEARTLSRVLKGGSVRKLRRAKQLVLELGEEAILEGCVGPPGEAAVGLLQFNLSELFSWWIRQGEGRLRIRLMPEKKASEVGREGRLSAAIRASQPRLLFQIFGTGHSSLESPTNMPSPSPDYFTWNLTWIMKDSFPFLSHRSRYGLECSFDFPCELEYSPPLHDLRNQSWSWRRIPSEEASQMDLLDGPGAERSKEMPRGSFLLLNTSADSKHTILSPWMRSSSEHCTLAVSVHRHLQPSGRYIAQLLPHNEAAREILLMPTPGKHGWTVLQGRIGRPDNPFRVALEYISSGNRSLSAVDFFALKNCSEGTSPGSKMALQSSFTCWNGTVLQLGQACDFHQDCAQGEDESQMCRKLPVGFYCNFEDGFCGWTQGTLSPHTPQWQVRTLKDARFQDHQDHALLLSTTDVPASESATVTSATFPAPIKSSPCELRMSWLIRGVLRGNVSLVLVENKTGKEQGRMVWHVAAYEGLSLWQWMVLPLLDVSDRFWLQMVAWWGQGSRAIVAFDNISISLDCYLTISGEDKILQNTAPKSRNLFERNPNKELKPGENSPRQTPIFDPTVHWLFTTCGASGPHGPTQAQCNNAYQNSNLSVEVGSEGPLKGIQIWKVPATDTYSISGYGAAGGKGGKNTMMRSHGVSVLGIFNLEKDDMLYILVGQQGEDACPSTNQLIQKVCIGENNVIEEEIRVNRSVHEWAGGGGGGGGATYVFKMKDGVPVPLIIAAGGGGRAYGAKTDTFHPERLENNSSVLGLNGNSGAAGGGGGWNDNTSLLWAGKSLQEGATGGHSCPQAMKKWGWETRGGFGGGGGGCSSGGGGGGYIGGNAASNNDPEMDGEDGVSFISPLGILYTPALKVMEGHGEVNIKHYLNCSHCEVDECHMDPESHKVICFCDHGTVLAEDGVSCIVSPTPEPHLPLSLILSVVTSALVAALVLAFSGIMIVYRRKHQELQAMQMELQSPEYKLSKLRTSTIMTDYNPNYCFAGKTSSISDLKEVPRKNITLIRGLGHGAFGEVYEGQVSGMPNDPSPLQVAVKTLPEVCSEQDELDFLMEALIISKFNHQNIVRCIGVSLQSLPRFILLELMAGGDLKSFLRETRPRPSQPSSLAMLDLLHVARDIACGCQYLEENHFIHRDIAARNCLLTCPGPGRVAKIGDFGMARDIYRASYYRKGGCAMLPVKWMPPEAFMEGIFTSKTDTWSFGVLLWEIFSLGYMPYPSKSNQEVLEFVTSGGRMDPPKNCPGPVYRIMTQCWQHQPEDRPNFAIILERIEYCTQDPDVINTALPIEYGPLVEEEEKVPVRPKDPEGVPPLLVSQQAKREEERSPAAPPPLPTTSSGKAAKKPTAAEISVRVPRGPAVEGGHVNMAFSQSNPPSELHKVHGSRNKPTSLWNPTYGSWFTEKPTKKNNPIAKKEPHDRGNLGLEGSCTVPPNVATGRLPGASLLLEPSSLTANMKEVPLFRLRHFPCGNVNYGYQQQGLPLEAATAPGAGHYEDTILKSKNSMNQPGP
IC50 [2],melting point,IC50 [3],SMILES,subjects developed polyoma-associated nephropathy [1]
< 100 nM,184 to 185 °C,< 100 nM,"NC(=O)[C@@H]1[C@H](Nc2c(Br)cnc3[nH]c(-c4cccc(CN5CCOCC5)c4)nc23)[C@H]2C=C[C@@H]1C2 [Compound LXXXI, (1S,2S,3R,4R)-3-[6-Bromo-2-(3-morpholin-4-ylmethyl-phenyl)-3H-imidazo[4,5-b]pyridin-7-ylamino]-bicyclo[2.2.1]hept-5-ene-2-carboxylic acid amide]",
< 100 nM,220 to 221 °C,< 100 nM,"CN(C)c1cccc(-c2nc3c(N[C@H]4[C@@H](C(N)=O)[C@@H]5C=C[C@H]4C5)c(Br)cnc3[nH]2)c1 [Compound LXXVII, (1S,2S,3R,4R)-3-[6-Bromo-2-(3-dimethylamino-phenyl)-3H-imidazo[4,5-b]pyridin-7-ylamino]-bicyclo[2.2.1]hept-5-ene-2-carboxylic acid amide]",

# Second part, the compound before the results:
SMILES,IC50 [2],melting point,IC50 [3],subjects developed polyoma-associated nephropathy [1]
"C[C@@H]1CCN(C(=O)CC#N)C[C@@H]1N(C)c1ncnc2[nH]ccc12 [CP-690,550]",,,,20%
"COC[C@@H](O)CN1CCC(c2ccc(-c3nc4c(N[C@H]5[C@@H](C(N)=O)[C@@H]6C=C[C@H]5C6)c(Cl)cnc4[nH]3)c(OC)c2)CC1 [Compound CXIX, (1S,2S,3R,4R)-3-(6-Chloro-2-{4-[1-((S)-2-hydroxy-3-methoxy-propyl)-piperidin-4-yl]-2-methoxy-phenyl}-3H-imidazo[4,5-b]pyridin-7-ylamino)-bicyclo[2.2.1]hept-5-ene-2-carboxylic acid amide]",< 100 nM,189 to 191 °C,< 100 nM,
"NC(=O)[C@@H]1[C@H](Nc2c(Br)cnc3[nH]c(-c4ccccc4-n4cccn4)nc23)[C@H]2C=C[C@@H]1C2 [Compound CIV, (1S,2S,3R,4R)-3-[6-Bromo-2-(2-pyrazol-1-yl-phenyl)-3H-imidazo[4,5-b]pyridin-7-ylamino]-bicyclo[2.2.1]hept-5-ene-2-carboxylic acid amide]",1000 to 10000 nM,120 °C,100 to 1000 nM,
